Assay results published in patent US5605929A, “Methods and compositions for inhibiting 5α-reductase activity” (priority 1995, dated 1997).
Read-outs that look alike come from different tables or passages of the source.

Legend:
[1] = molecular target: T1, 5α-Reductase of Rat Liver Microsomes (Rattus norvegicus, UniProt P24008); test: biochemical; settings: for Ki: apparent Ki values for [^3 H]4-MA
T1 sequence (P24008 1-259): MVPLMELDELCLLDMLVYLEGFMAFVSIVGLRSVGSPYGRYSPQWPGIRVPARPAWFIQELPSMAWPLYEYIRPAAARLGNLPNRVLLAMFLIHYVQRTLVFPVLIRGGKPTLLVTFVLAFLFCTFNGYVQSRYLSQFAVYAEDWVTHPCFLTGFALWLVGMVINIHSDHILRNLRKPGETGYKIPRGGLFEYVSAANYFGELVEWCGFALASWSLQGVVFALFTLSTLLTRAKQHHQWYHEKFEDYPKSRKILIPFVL
Protocol: Briefly, the binding assay solution, in a final volume of 0.15 ml, contained microsomes (2-20 μg of protein), 0.08 μCi of [^3 H]4-MA, 0.1 mM-NADPH, 1 mM-dithiothreitol and 50 mM-potassium phosphate, pH 7.0, with or without the indicated amount of a lipid or an inhibitor preparation. Lipids were dissolved in ethanol and added in 1-5 μl volumes. Control tubes received the same amount of ethanol. After incubation at 0° C. for 1 h, the [^3 H]4-MA bound to microsomes was determined by collecting microsomes on a Whatman GF/1F glass fibre filter and washing with 10 ml of 20 mM-potassium phosphate, pH 7.0, containing 0.01% CHAPS to remove unbound [^3 H]4-MA.
Microsomes were prepared at 4° C. from a buffered 0.32M-sucrose homogenate of human liver and from the livers of adult Sprague-Dawley female rats by differential centrifugation as described previously (Liang et al., 1990), and were used in the assay of 5α-reductase activity. In some experiments, microsomes were solubilized with 0.1% polyoxyethylene ether W-1 as described previously (Liang et al., 1990), except for the substitution of polyoxyethylene ether W-1 for Lubrol-WX.

[2] = system: 5α-reductase in liver and prostate; settings: cited from earlier work
[3] = ethanol solution
[4] = system: flank organs, seminal vesicles, prostate and other organs
LNCaP = test: cells; settings: Homo sapiens, read-out: 5α-DHT formed (% of control)
hamster flank organ [5] = settings: for Pigmented macule, right flank organ / Pigmented macule, left flank organ (vehicle): 15 days; for Pigmented macule, right flank organ: vehicle 23.5 ± 3.8
Protocol: Animals were divided into 10/group. The right flank organ was treated daily with 5 μl solution containing vehicle (ethanol) alone or γ-LA (0.5, 1, and 2 mg) for 15-25 days. The left flank organ of all animals received the same volume of vehicle.
The lengths of the long axis and the short axis of the pigmented spot (pigmented macule) were measured using a caliper with digital display (Digimatic, Mitutoyo Corp., Japan). […] The data are presented as mean ± standard deviation.

hamster flank organ [6] = test: Flank organ, castrated immature male hamsters, topical treatment; type: in vivo, Syrian golden hamster; settings: for change of pigmented macule vs T alone: Table 4, T + 1 mg fatty acid
Procedure, shortened: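 Castrated immature male hamsters (5 per group) received 5 μl once daily on the right flank organ of ethanol vehicle, androgen (T or 5α-DHT), fatty acid, or androgen plus fatty acid. The left organ was left untreated. Pigmented macule and sebaceous gland growth were assessed with caliper long and short axes, as mean ± SD.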

[7] = molecular target: T1, 5α-Reductase of Rat Liver Microsomes; test: [3H]4-MA binding assay, rat liver microsomes (tea catechins)
Procedure, shortened: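 Microsomes from adult female Sprague-Dawley rat liver or Rat-1A cells expressing human 5α-reductase, 25 μg protein per reaction. Incubation 30–60 min at 0 °C; microsome-bound [3H]4-MA collected on glass-fibre filters and counted. Duplicate or triplicate determinations, values based on reaction rate.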

[8] = system: Human prostate cancer PC-3 cells; test: PC-3 tumor growth in nude mice; type: in vivo, nude mice (human tumor)
Protocol: Human prostate cancer PC-3 cells were grown in culture medium. About one million cells were injected into male nude mice and the growth of tumors were followed. Within two weeks, the tumor grew to about 100 mm^3. […] The 3 controls received water only.

[9] = system: prostate and preputial organ; test: Catechins ip 7 days, large rats; type: in vivo, rat
Protocol: Male Sprague Dawley rats, 172±20 g body weight, were used. Each group had 5 rats. […] The control rats received 0.3 ml of 30% ethanol.

[10] = NADPH oxidation in presence of microsomes
[11] = read-out: % Inhibition of [^3 H]4-MA binding

## CCCCC/C=C\C/C=C\C/C=C\CCCCC(=O)O [γ-Linolenic acid, γ-linolenic acid]
[1]; γ-LA 5 μM
  Ki: 20 nM
[1]; γ-LA 10 μM
  Ki: 40 nM
[1]; [11]
  inhibition at 5 µM: 30%
  inhibition at 10 µM: 50 ± 2%
  inhibition at 40 µM: 83 ± 12%
  inhibition at 200 µM: 96 ± 2%
[2]
  inhibition of 5α-reductase activity in liver and prostate: inhibit 5α-reductase activity in both the liver and prostate
[3]; 5 weeks of storage
  oxidation products by TLC: two additional more polar products
[3]; refrigerated for 3 weeks
  changes of the compound by TLC: no detectable changes
[4]; after injections, control 12.9±2.2
  left flank organ area: 9.9±2.4
[4]; after injections, control 14.6±1.5
  right flank organ area: 9.8±2.5 mm^2
[4]; control 0.022±0.004 g
  adrenal weight: 0.021 ± 0.004 g
[4]; control 0.156±0.026 g
  seminal vesicles and prostate weight: 0.106 ± 0.022 g
[4]; control 0.157±0.027
  spleen weight: 0.1867±0.048
[4]; control 1.060±0.086 g
  kidney weight: 1.121 ± 0.073 g
LNCaP
  activity at 50 µM: 27%
  activity at 100 µM: 9 ± 4%
Hamster flank organ [5]; FIG. 32, 1 and 2 mg
  growth rate of pigmented macules: dramatically reduced
Hamster flank organ [5]; Table 7, 0.5 mg
  change of pigmented macule (#): -34%
  change of pigmented macule (*): -19%
Hamster flank organ [5]; Table 7, 0.5 mg/day
  Pigmented macule, right flank organ: 19.0 ± 3.6 mm^2
Hamster flank organ [5]; Table 7, 1.0 mg
  change of pigmented macule (#): -63%
  change of pigmented macule (*): -54%
Hamster flank organ [5]; Table 7, 1.0 mg/day
  Pigmented macule, right flank organ: 10.8 ± 2.7 mm^2
Hamster flank organ [5]; Table 7, group 2, right treated with 0.5 mg
  Pigmented macule, left flank organ (vehicle): 28.6 ± 4.0 mm^2
Hamster flank organ [5]; Table 7, group 3, right treated with 1.0 mg
  Pigmented macule, left flank organ (vehicle): 29.2 ± 4.8 mm^2
Hamster flank organ [5]; hamster, in vivo
  effect on contralateral pigmented macules: not affected
Hamster flank organ [6]; 0.2 to 1 mg
  inhibition of 5α-DHT-induced growth of pigmented macule: no statistically significant inhibition
Hamster flank organ [6]; T-stimulated pigmented macule, per flank organ/day
  effective dosage: ≥ 0.2 mg
Hamster flank organ [6]; Table 4, 1 mg fatty acid alone, 18 days
  Pigmented Macule, Untreated (L): 4.2 ± 0.6 mm^2
Hamster flank organ [6]; Table 4, T 0.5 μg + 1 mg fatty acid
  Pigmented Macule, Untreated (L): 4.1 ± 0.3 mm^2
Hamster flank organ [6]; listed as LA
  change of pigmented macule vs T alone: -53%
Hamster flank organ [6]; listed as γ-LA
  change of pigmented macule vs T alone: 53%
Hamster flank organ [6]; Table 5, T 0.5 μg + fatty acid 1 mg, 21 days
  Percent Inhibition: 66%
Hamster flank organ [6]; Table 5, T 0.5 μg + fatty acid 1 mg, 21 days, T alone 49.6 ± 8.3
  Pigmented macule Right (+T): 17.0 ± 6.4 mm^2
Hamster flank organ [6]; Table 5, fatty acid 1 mg without T, 21 days
  Pigmented macule Left: 4.4 ± 1.6 mm^2
Hamster flank organ [6]; Table 6, T + LA 0.2 mg
  Pigment Macule change: -31%
  Sebaceous Gland change: -30%
Hamster flank organ [6]; Table 6, T + LA 0.4 mg
  Pigment Macule change: -24%
Hamster flank organ [6]; Table 6, T + LA 0.6 mg
  Pigment Macule change: -45%
  Sebaceous Gland change: -51%
Hamster flank organ [6]; Table 6, T + LA 0.8 mg
  Pigment Macule change: -32%
  Sebaceous Gland change: -25%
Hamster flank organ [6]; Table 6, T + LA 1.0 mg
  Pigment Macule change: -34%
  Sebaceous Gland change: -55%
Hamster flank organ [6]; daily dose of 1 to 2 mg γ-LA
  maximum inhibition: 50 to 66%
Hamster flank organ [6]; hamster, in vivo
  effect on sebaceous gland growth stimulated by 5α-DHT: did not significantly affect
Hamster flank organ [6]; reached by 1 mg, T-stimulated pigmented macule
  maximal inhibition: 50%

## O=C(O[C@@H]1Cc2c(O)cc(O)cc2O[C@@H]1c1cc(O)c(O)c(O)c1)c1cc(O)c(O)c(O)c1 [EGCG, (-)Epigallocatechin-3-gallate]
[7]
  IC50: 3000 nM
[7]; [11]
  inhibition at 5 µM: 61%
  inhibition at 10 µM: 74%
  inhibition at 20 µM: 79%
  inhibition at 40 µM: 88%
  inhibition at 200 µM: 93%
[8]; FIG. 33, 1 mg/day, two weeks, controls about 450
  tumor size: smaller than 100 mm^3
[8]; FIG. 34, 1400 mm^3 tumor, after 2 weeks of EGCG
  tumor size: about 850 mm^3
[8]; FIG. 34, 1400 mm^3 tumor, after another 2 weeks of EGCG
  tumor size: about 500 mm^3
[8]; FIG. 34, during the 2 week injection
  tumor size: about 100 mm^3
[8]; FIG. 34, within 2 weeks after injection stopped
  tumor size: about 800 mm^3
[8]; FIG. 34, within 3 weeks after injection stopped
  tumor size: over 1200 mm^3
[9]; 15 mg ip/day, 7 days
  body weight decrease: about 15%
  coagulating gland weight: 34 % of organ weight in normal rats
  dorsolateral prostate weight: 46 % of organ weight in normal rats
  kidney weight: 74 % of organ weight in normal rats
  preputial gland weight: 35 % of organ weight in normal rats
  seminal vesicle weight: 41 % of organ weight in normal rats
  testis weight: 84 % of organ weight in normal rats
  ventral prostate weight: 46 % of organ weight in normal rats
[9]; 15 mg ip/day, 7 days, normal 232±10 g
  final body weight: 147 ± 14 g
[9]; end of study
  final body weight reduction vs normal rats: about 36%
[10]
  NADPH oxidation: did not induce NADPH oxidation
